Data on 29 compounds can be found in patent US10898504B2, “Substituted nucleoside analogues for use as PRMT5 inhibitors” (Janssen Pharmaceutica NV, priority 2016, dated 2021).

One assay addresses T1, PRMT5-MEP50 enzyme (Homo sapiens, UniProt O14744).
T1 construct: One virus expresses full length human PRMT5 with Flag-tag at N-terminus
Kind of assay: In vitro assay (Assay 1): PRMT5-MEP50 high throughput mass spectrometer assay, inhibition of SAH formation. Type of assay: biochemical. Particulars: individual measurements shown, read-out: pIC50 Assay 1 (converted). From the text: EXPERIMENTAL PROCEDURES IN VITRO ASSAY (ASSAY 1)
PRMT5-MEP50 enzyme was purchased from Charles River (Argenta). The enzyme complex was produced in insect cells (Sf9) infected simultaneously with two baculoviruses. One virus expresses full length human PRMT5 with Flag-tag at N-terminus, the second virus expresses full length MEP50 with His6-TEV cleavage at N-terminus. The protein was affinity purified using anti-Flag (M2) beads eluted with 3×FLAG peptide, followed by His-Select eluted with 0.5M imidazole. Eluted protein was then dialysed against tris-buffered saline (TBS) (pH 8.0) containing 20% glycerol and 3 mM dithiothreitol (DTT).
Full-length untagged human recombinant histone H2A (residues 1-130, Genbank Accession #NM_021052, MW=14.1 kDa) expressed in E. coli was purchased from Reaction Biology Corporation, Cat #HMT-11-146. Reagents used for making reaction buffer or stopping reaction were purchased including Tris base (Sigma Cat #T-1503), NaCl (Sigma Cat #RGF-3270), MgCl2 (Sigma Cat #M0250), DTT (Invitrogen Cat #15508-013) and Formic Acid (Riedel deHaen, Cat #33015)
High Throughput Mass Spectrometer Assay
PRMT5 catalyzes the sequential methylations of the terminal nitrogen atoms on the guanidine groups of arginine residues within proteins using co-substrate S-adenosyl-L-methionine (AdoMet, SAM), forming mono-methyl (MMA), symmetric-dimethyl arginine (sDMA) and S-adenosyl-L-homocysteine (AdoHcy, SAH). The enzyme activity was determined by following the product SAH formation using high throughput mass spectrometry (Agilent Rapidfire 300 System coupled to a Sciex 4000 series QTrapm triple-quad MS/MS). The reaction buffer was 20 mM Tris-HC, pH 8.5, 50 mM NaCl, 5 mM MgCl2 and 1 mM DTT. The reaction activity was stopped using 1% formic acid (final concentration).
The IC50 Studies were performed using eleven point dosing series made for each compound by serially diluted 1:2 in dimethyl sulfoxide (DMSO), with point 12 being a DMSO control. Compounds were first spotted to plates, and followed by addition of 2 μM SAM and 0.6 μM H2A (histone H2A) solution mixture. The same volume of enzyme solution was added to initiate the enzymatic reactions. The final concentrations of the reaction are at 1 μM SAM, 0.3 μM H2A and 10 nM enzyme. The reaction was incubated at 30° C. for 60 minutes (min) and then quenched by addition of formic acid to a final concentration of 1%. The inhibitions of SAH formation in the presence of compounds were calculated as a percentage of the control relative to the uninhibited reaction as a function of inhibitor concentration. The data were fit as follows: Y=Bottom+(Top−Bottom)/(1+10^((log IC50−X)*h))
where IC50 is the inhibitor concentration (same unit as X) at 50% inhibition and h is the Hill slope. Y is percent of inhibition, X is log of compound concentration. Bottom and Top are the plateaus in same units as Y.

A further assay concerns A549 cells. Kind of assay: PD assay (Assay 2): inhibition of nuclear symmetric Arginine dimethylation (SYM10 immunohistochemistry) in A549 cells. Type of assay: cell-based. Particulars: individual measurements shown; for IC50: Homo sapiens, A549, PD assay in A549 cells, read-out: pIC50 Assay 2 (converted); for pIC50 Assay 2: PD assay in A549 cells. The protocol:
EXPERIMENTAL PROCEDURE PD ASSAY (ASSAY 2)
A549 cells (ATCC, Cat #CCL-185) were cultured in Dulbecco's Modified Eagle's Medium (DMEM) (Sigma, Cat #D5796), supplemented with 10% Fetal Calf Serum (FCS)(HyClone™, Cat #SV30160.03), 100 mM Sodium Pyruvate (Sigma, Cat #S8636), 200 mM L-Glutamine (Sigma, Cat #G7513) and 50 mg/mL Gentamycing (Gibco, Cat #15750-037).
Reagents used for buffers were purchased: Dulbecco's phosphate buffered saline (DPBS) without Ca/Mg (Sigma, Cat #D8537), phosphate buffered saline (PBS) 10× (Roche, Cat #11 666 789 001), Formalin solution 10% (Sigma, HT50-1-128-4L), MeOH 100% (Sigma, Cat #32213-2.5L), Triton X-100 (Acros, Cat #215680010), Bovine Serum Albumin (BSA) (Sigma, Cat #A2153), Alexa fluor 488 goat anti-rabbit antibody (Life Technologies, Cat #A11034), HCS CellMask Deep Red Stain (Life Technologies, Cat #H32721), Hoechst Stain (Life Technologies, Cat #33258), Anti-dimethyl-Arginine, sym (SYM10) antibody (Millipore, 07-412).
Immunohistochemistry Procedure
Cells were plated at 400 cells/40 μL/well in 384 well black plates μclear bottom (Perkin Elmer) and overnight incubated at 37° C., 5% CO2. The IC50 Studies were performed using nine point dosing series ranging from 10 μM to […] for each compound. 80 nL of the respective dilution of the compounds was added using the Labcyte POD 810 (Labcyte) reaching a final DMSO concentration of 0.2% in cell culture. After an incubation period of 48 h at 37° C. and 5% CO2, cells were fixed in 10% formalin solution for 15 min at r.t. and 20 min in ice-cold MeOH, after which they were washed 3× in DPBS. Subsequently, the cells were blocked for 1 h in blocking buffer (PBS+1% BSA and 0.5% Triton X-100) and incubated overnight at 4° C. with the SYM10 antibody diluted 1/2000 in blocking buffer. The cells were washed 3× with washing buffer (PBS+0.1% Triton X-100) and incubated with the Alexa fluor 488 goat anti-rabbit antibody diluted 1/200 in blocking buffer for 1 h at r.t. Subsequently, they were washed 3× with washing buffer and incubated for 30 min at r.t. with PBS containing a 1/5000 dilution of Hoechst Stain and a 1/5000 dilution of the HCS CellMask Deep Red Stain. After a final wash with PBS, the plates were imaged using the 10×W lens of the Opera® system (Perkin Elmer Life Sciences) using following settings (values in nm):
In the above equations, the following variable names are use: […]
In the above equations, the following controls were used for normalization: […]
Low control: minimum level of symmetrically dimethylated Arginines (cells treated with reference compound at 10 μM).
High control: maximum level of symmetrically dimethylated Arginines (DMSO treated cells).
IC50 and pIC50 (−log IC50) values were calculated using the appropriate software.
pIC50 values (Co. No. means compound number; n.d. means not determined).

Several values for one entry are separate records, joined by “and”; a condition that tells them apart may be missing. Identical values can stand only once. Where only a bound is given, the exact number is not on record here.

T1 sequence (O14744 whole entry): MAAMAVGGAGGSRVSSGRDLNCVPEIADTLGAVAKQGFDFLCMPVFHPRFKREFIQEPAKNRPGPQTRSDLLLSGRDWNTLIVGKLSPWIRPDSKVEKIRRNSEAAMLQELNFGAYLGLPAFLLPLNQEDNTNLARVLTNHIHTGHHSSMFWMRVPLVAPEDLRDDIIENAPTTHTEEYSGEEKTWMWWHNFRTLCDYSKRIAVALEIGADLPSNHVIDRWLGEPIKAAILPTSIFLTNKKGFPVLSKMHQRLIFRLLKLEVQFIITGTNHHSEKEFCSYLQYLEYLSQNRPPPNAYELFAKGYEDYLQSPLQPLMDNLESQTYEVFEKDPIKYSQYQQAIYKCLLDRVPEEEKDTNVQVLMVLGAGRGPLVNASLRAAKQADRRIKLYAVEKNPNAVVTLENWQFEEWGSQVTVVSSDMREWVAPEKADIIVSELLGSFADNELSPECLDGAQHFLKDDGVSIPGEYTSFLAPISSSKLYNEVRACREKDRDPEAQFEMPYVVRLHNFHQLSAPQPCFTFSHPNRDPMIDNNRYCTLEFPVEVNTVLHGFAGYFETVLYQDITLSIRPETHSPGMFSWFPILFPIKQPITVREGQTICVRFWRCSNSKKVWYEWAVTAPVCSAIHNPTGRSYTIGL
T1 sequence (Q9BQA1 whole entry partner): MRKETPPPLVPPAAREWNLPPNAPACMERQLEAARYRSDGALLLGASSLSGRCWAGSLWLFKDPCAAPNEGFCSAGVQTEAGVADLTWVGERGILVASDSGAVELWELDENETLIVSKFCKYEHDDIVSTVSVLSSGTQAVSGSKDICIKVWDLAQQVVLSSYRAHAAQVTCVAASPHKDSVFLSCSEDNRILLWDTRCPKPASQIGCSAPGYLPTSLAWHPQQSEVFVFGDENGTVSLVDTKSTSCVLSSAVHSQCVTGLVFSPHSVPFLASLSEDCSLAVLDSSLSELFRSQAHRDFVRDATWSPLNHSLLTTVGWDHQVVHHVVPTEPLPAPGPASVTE

Consider `CN1CCCC12CCN(C[C@H]1O[C@@H](n3cnc4c(N)ncnc43)[C@H](O)[C@@H]1O)C2` (stereo partly drawn) [Compound 15], for which the IC50 was 29500 nM at PRMT5-MEP50 enzyme and more than 10000 nM in the assay with A549 cells.
As to `Nc1ncnc2c1ccn2[C@@H]1O[C@H](CN2CCCC3(COCCN3)C2)[C@@H](O)[C@H]1O` (stereo partly drawn) [Compound 37], the IC50 at PRMT5-MEP50 enzyme was 170 nM; with A549 cells, 5370 nM.
The matching figures for `Nc1ncnc2c1ncn2[C@@H]1O[C@H](CN2CCCC23CNC3)[C@@H](O)[C@H]1O` [Compound 91]: 1230 nM and more than 10000 nM.
Consider `CN1CCC2(CCCN(C[C@H]3O[C@@H](n4ccc5c(N)ncnc54)[C@H](O)[C@@H]3O)C2)C1` (stereo partly drawn) [Compound 186], for which the IC50 at PRMT5-MEP50 enzyme is 13.5 nM; in the assay with A549 cells, 617 nM.
The corresponding values for `Nc1ncnc2c1ccn2[C@@H]1O[C@H](CN2CCCC23CCN(CC(F)F)CC3)[C@@H](O)[C@H]1O` [Compound 196] are 1150 nM and 3240 nM.
The matching figures for `CCN1CCC2(CCCN2C[C@H]2O[C@@H](c3ccc4c(N)ncnn34)[C@H](O)[C@@H]2O)CC1` [Compound 142]: 1950 nM and more than 10000 nM.
For the compound `Nc1ncnc2c1ccn2[C@@H]1O[C@H](CN2CCCC2(CN2CCCC2)C(F)(F)F)[C@@H](O)[C@H]1O` (stereo partly drawn) [Compound 189], at PRMT5-MEP50 enzyme, the IC50 was more than 10000 nM.
Turning to `CN1CCC2(CCCN2C[C@H]2O[C@@H](n3ccc4c(Cl)ncnc43)[C@H](O)[C@@H]2O)CC1` [Compound 208], the IC50 at PRMT5-MEP50 enzyme was 75.9 nM; in the assay with A549 cells it was 490 nM.
As to `Nc1ncnc2c1ccn2[C@@H]1O[C@H](CN2CCOCC23CCNC3)[C@@H](O)[C@H]1O` (single isomer, unassigned) [Compound 111], at PRMT5-MEP50 enzyme, the IC50 is 174 nM. Moreover, the “pIC50 Assay 2” value in the assay on A549 cells was approximately 5.26.
As for `Cc1nc(CN2CCC3(CCCN3C[C@H]3O[C@@H](n4ccc5c(N)ncnc54)[C@H](O)[C@@H]3O)CC2)cs1` [Compound 176], the figures for the IC50 on PRMT5-MEP50 enzyme and with A549 cells were 1120 nM and 6030 nM, respectively.
The corresponding values for `Nc1ncnn2c([C@@H]3O[C@H](CN4CCCC45CCN(CCc4ccc(F)cc4)CC5)[C@@H](O)[C@H]3O)ccc12` [Compound 139] are 3240 nM and 1660 nM.
For the compound `CN1CCC2(CCCN2C[C@H]2O[C@@H](n3ccc4c(N)nc(Cl)nc43)[C@H](O)[C@@H]2O)CC1` [Compound 65], the IC50 is 56.2 nM on PRMT5-MEP50 enzyme and 955 nM in the assay on A549 cells.
Take `CN1CCC2(CCCN2C[C@H]2O[C@@H](n3cc(Br)c4c(N)ncnc43)[C@H](O)[C@@H]2O)CC1` [Compound 179]: the IC50 at PRMT5-MEP50 enzyme was 31.6 nM; in the assay with A549 cells, 95.5 nM.
Turning to `Nc1ncnc2c1ccn2[C@@H]1O[C@H](CN2CCCC(N)C2)[C@@H](O)[C@H]1O` (stereo partly drawn) [Compound 53], the IC50 on PRMT5-MEP50 enzyme is 28.8 nM; in the assay with A549 cells it was 891 nM.
Consider `CN1CCC2(CCN(C[C@H]3O[C@@H](n4cnc5c(N)ncnc54)[C@H](O)[C@@H]3O)C2)C1` (stereo partly drawn) [Compound 14], for which the IC50 at PRMT5-MEP50 enzyme is 977 nM; with A549 cells, more than 10000 nM.
With `Nc1ncnn2c([C@@H]3O[C@H](CN4C(C(F)(F)F)CCC45CCNCC5)[C@@H](O)[C@H]3O)ccc12` (stereo partly drawn) [Compound 137], the IC50 on PRMT5-MEP50 enzyme is 1150 nM; with A549 cells it was more than 10000 nM.
On to `Nc1ncnc2c1ccn2[C@@H]1C[C@H](CC2=CCCC23CCNCC3)[C@@H](O)[C@H]1O` [Compound 166], for which the IC50 at PRMT5-MEP50 enzyme was 1.86 nM and 1.58 nM and 0.631 nM. The “pIC50 Assay 2” value in the assay on A549 cells was 7.41 and 7.92 and 7.87.
Turning to `NCC[C@@H]1CCCN1C[C@H]1O[C@@H](n2ccc3c(N)ncnc32)[C@H](O)[C@@H]1O` [Compound 57], the IC50 on PRMT5-MEP50 enzyme is 11.2 nM; with A549 cells it was 158 nM.
With `NCC[C@@H]1COCCN1C[C@H]1O[C@@H](c2ccc3c(N)ncnn23)[C@H](O)[C@@H]1O` [Compound 134], the IC50 was 200 nM on PRMT5-MEP50 enzyme and 8910 nM in the assay with A549 cells.
Consider `Nc1ncnc2c1ncn2[C@@H]1O[C@H](CN2CCC3(CCNCC3)C2)[C@@H](O)[C@H]1O` [Compound 75], for which the IC50 was 39800 nM on PRMT5-MEP50 enzyme and more than 10000 nM in the assay with A549 cells.
As for `CN1CCC2(CCCN2C[C@H]2O[C@@H](n3ccc4c(NCc5ccc(F)cc5)ncnc43)[C@H](O)[C@@H]2O)CC1` [Compound 203], the figures for the IC50 on PRMT5-MEP50 enzyme and in the assay on A549 cells were 209 nM and 661 nM, respectively.
On to `CN(C)C[C@@H]1CC(F)(F)CCN1C[C@H]1O[C@@H](c2ccc3c(N)ncnn23)[C@H](O)[C@@H]1O` [Compound 157], for which the IC50 on PRMT5-MEP50 enzyme is more than 10000 nM; in the assay with A549 cells it was more than 20000 nM.
As to `Nc1ncnc2c1ccn2[C@@H]1O[C@H](CN2CCCC23CCN(CCOc2ccc(F)cc2)CC3)[C@@H](O)[C@H]1O` [Compound 173], the IC50 is 347 nM on PRMT5-MEP50 enzyme and 776 nM with A549 cells.
On to `CN1CCC2(CCCN2C[C@H]2O[C@@H](n3cc(F)c4c(N)ncnc43)[C@H](O)[C@@H]2O)CC1` [Compound 178], for which the IC50 was 51.3 nM on PRMT5-MEP50 enzyme and 120 nM in the assay with A549 cells.
For the compound `Nc1ncnc2c1ccn2[C@@H]1C[C@H](CN2CCCC23CCNCC3)[C@@H](O)[C@H]1O` [Compound 124], the IC50 was 27.5 nM at PRMT5-MEP50 enzyme and 447 nM in the assay with A549 cells.
For the compound `Nc1ncnc2c([C@@H]3O[C@H](CN4CCCC45CCNCC5)[C@@H](O)[C@H]3O)cnn12` [Compound 68], the results for the IC50 on PRMT5-MEP50 enzyme and with A549 cells were 229 nM and approximately 1950 nM, respectively.
On to `CN1CCC12CN(C[C@H]1O[C@@H](n3cnc4c(N)ncnc43)[C@H](O)[C@@H]1O)C2` [Compound 17], for which the IC50 on PRMT5-MEP50 enzyme is more than 100000 nM.
As for `CN1CCC2(C1)CN(C[C@H]1O[C@@H](n3cnc4c(N)ncnc43)[C@H](O)[C@@H]1O)C2` [Compound 6], at PRMT5-MEP50 enzyme, the IC50 was more than 100000 nM.
As for `CC(C)C(=O)O[C@@H]1[C@H](OC(=O)C(C)C)[C@@H](CN2CC(F)(F)CC23CCN(C)CC3)O[C@H]1n1ccc2c(N)ncnc21` [Compound 101], the “pIC50 Assay 2” value with A549 cells is 7.06 and 7.08.
